Results published in patent publication US9284333B2, “Fused pyrroledicarboxamides and their use as pharmaceuticals” (SANOFI, priority 2012, dated 2016).

Target: Human TASK-1 channels (Homo sapiens (Human), UniProt O14649)
Test: Determination of the activity on the TASK-1 channel in Xenopus oocytes (two-microelectrode voltage clamp)
Type: cell-based
Settings: human TASK-1 expressed in Xenopus oocytes, room temperature; read-out: IC50 value for TASK-1 inhibition
Summary of the method: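 Current during 500 ms pulses to 40 mV from a −90 mV hold was recorded in oocytes expressing human TASK-1 for two days after cRNA injection. Compounds were added cumulatively to the ND96 bath (pH 7.4, room temperature). IC50 came from dose-response fitting of inhibition relative to pre-compound current.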

Human TASK-1 channels, sequence (O14649 whole entry): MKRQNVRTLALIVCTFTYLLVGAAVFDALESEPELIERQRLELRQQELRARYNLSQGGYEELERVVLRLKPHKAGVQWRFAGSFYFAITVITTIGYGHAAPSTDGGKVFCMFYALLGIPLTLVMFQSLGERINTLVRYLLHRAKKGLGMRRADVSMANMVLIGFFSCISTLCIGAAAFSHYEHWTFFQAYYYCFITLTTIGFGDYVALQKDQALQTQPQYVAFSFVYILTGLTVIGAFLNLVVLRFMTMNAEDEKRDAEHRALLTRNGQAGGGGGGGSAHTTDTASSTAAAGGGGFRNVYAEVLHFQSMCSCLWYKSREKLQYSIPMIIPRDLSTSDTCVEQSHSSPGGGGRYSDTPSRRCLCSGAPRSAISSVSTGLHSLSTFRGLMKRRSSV

Row | Structure (SMILES) | IC50 [nM]
1 | CC[C@@H](NC(=O)c1cc(C(=O)N[C@H](C)C(C)(C)C)n2c1COCC2)c1ccccc1 [16hr, 3,4-Dihydro-1H-pyrrolo[2,1-c][1,4]oxazine-6,8-dicarboxylic acid 8-[((R)-1-phenyl-propyl)-amide] 6-[((R)-1,2,2-trimethyl-propyl)-amide]] | 190
2 | CC[C@H](NC(=O)c1cc(C(=O)N[C@H](CC)c2ccccc2)c2n1CCOC2)c1ccccc1 [16hs, 3,4-Dihydro-1H-pyrrolo[2,1-c][1,4]oxazine-6,8-dicarboxylic acid 6-[((S)-1-phenyl-propyl)-amide] 8-[((R)-1-phenyl-propyl)-amide]] | 100
3 | CC[C@@H](NC(=O)c1cc(C(=O)N[C@@H](C)c2ccc(F)cc2)n2c1COCC2)c1ccccc1 [16ht, 3,4-Dihydro-1H-pyrrolo[2,1-c][1,4]oxazine-6,8-dicarboxylic acid 6-{[(S)-1-(4-fluoro-phenyl)-ethyl]-amide} 8-[((R)-1-phenyl-propyl)-amide]] | 70
4 | CC[C@@H](NC(=O)c1cc(C(=O)N[C@H](CC)c2cnccn2)n2c1COCC2)c1ccccc1 [16hw, 3,4-Dihydro-1H-pyrrolo[2,1-c][1,4]oxazine-6,8-dicarboxylic acid 8-[((R)-1-phenyl-propyl)-amide] 6-[((R)-1-pyrazin-2-yl-propyl)-amide]] | 360
5 | CC[C@H](NC(=O)c1cc(C(=O)N[C@H](CC)c2ccccc2)c2n1CCOC2)c1cnccn1 [16hx, 3,4-Dihydro-1H-pyrrolo[2,1-c][1,4]oxazine-6,8-dicarboxylic acid 8-[((R)-1-phenyl-propyl)-amide] 6-[((S)-1-pyrazin-2-yl-propyl)-amide]] | 57
6 | CC[C@@H](NC(=O)c1cc(C(=O)N[C@H](CC)c2cnc(OC)cn2)n2c1COCC2)c1ccccc1 [16hy, 3,4-Dihydro-1H-pyrrolo[2,1-c][1,4]oxazine-6,8-dicarboxylic acid 6-{[(R)-1-(5-methoxy-pyrazin-2-yl)-propyl]-amide} 8-[((R)-1-phenyl-propyl)-amide]] | 41
7 | CC[C@H](NC(=O)c1cc(C(=O)N[C@H](CC)c2ccccc2)c2n1CCOC2)c1cnc(OC)cn1 [16hz, 3,4-Dihydro-1H-pyrrolo[2,1-c][1,4]oxazine-6,8-dicarboxylic acid 6-{[(S)-1-(5-methoxy-pyrazin-2-yl)-propyl]-amide} 8-[((R)-1-phenyl-propyl)-amide]] | 130
8 | CC[C@@H](NC(=O)c1cc(C(=O)N[C@H](CC)c2ccccc2)n2c1COCC2)c1ccccc1 [16i, 3,4-Dihydro-1H-pyrrolo[2,1-c][1,4]oxazine-6,8-dicarboxylic acid bis-[((R)-1-phenyl-propyl)-amide]] | 160
9 | CC[C@@H](NC(=O)c1cc(C(=O)N[C@H](CC)c2ncccc2OC)n2c1COCC2)c1ccccc1 [16ia, 3,4-Dihydro-1H-pyrrolo[2,1-c][1,4]oxazine-6,8-dicarboxylic acid 6-{[(R)-1-(3-methoxy-pyridin-2-yl)-propyl]-amide} 8-[((R)-1-phenyl-propyl)-amide]] | 120
10 | CC[C@@H](NC(=O)c1cc(C(=O)N[C@H](CC)c2ccc(C#N)nc2)n2c1COCC2)c1ccccc1 [16ib, 3,4-Dihydro-1H-pyrrolo[2,1-c][1,4]oxazine-6,8-dicarboxylic acid 6-{[(R)-1-(6-cyano-pyridin-3-yl)-propyl]-amide} 8-[((R)-1-phenyl-propyl)-amide]] | 1000
11 | CC[C@@H](NC(=O)c1cc(C(=O)N[C@H](CC)c2cccc(OC)n2)n2c1COCC2)c1ccccc1 [16ic, 3,4-dihydro-1H-pyrrolo[2,1-c][1,4]oxazine-6,8-dicarboxylic acid 6-{[(R)-1-(6-methoxy-pyridin-2-yl)-propyl]-amide} 8-[((R)-1-phenyl-propyl)-amide]] | 40
12 | CC[C@@H](NC(=O)c1cc(C(=O)N[C@H](CC)c2ccc(C(F)(F)F)nc2)n2c1COCC2)c1ccccc1 [16id, 3,4-Dihydro-1H-pyrrolo[2,1-c][1,4]oxazine-6,8-dicarboxylic acid 8-[((R)-1-phenyl-propyl)-amide] 6-{[(R)-1-(6-trifluoromethyl-pyridin-3-yl)-propyl]-amide}] | 530
13 | CC[C@@H](NC(=O)c1cc(C(=O)N[C@H](CC)c2cccnc2OC)n2c1COCC2)c1ccccc1 [16ig, 3,4-Dihydro-1H-pyrrolo[2,1-c][1,4]oxazine-6,8-dicarboxylic acid 6-{[(R)-1-(2-methoxy-pyridin-3-yl)-propyl]-amide} 8-[((R)-1-phenyl-propyl)-amide]] | 240
14 | CC[C@@H](NC(=O)c1cc(C(=O)N2Cc3ccccc3C2)n2c1COCC2)c1ccccc1 [16ih, 6-(1,3-Dihydro-isoindole-2-carbonyl)-3,4-dihydro-1H-pyrrolo[2,1-c][1,4]oxazine-8-carboxylic acid ((R)-1-phenyl-propyl)-amide] | 200
15 | CC[C@@H](NC(=O)c1cc(C(=O)NCc2ncn[nH]2)n2c1COCC2)c1ccccc1 [16ii, 3,4-Dihydro-1H-pyrrolo[2,1-c][1,4]oxazine-6,8-dicarboxylic acid 8-[((R)-1-phenyl-propyl)-amide] 6-[(2H-[1,2,4]triazol-3-ylmethyl)-amide]] | 650
16 | CCC(NC(=O)c1cc(C(=O)N[C@H](CC)c2ccccc2)c2n1CCOC2)c1nccs1 (stereo partly drawn) [16ij, 3,4-Dihydro-1H-pyrrolo[2,1-c][1,4]oxazine-6,8-dicarboxylic acid 8-[((R)-1-phenyl-propyl)-amide] 6-[(1-thiazol-2-yl-propyl)-amide]] | 170
17 | CC[C@@H](NC(=O)c1cc(C(=O)N[C@H](c2ccc(F)cc2)C2CC2)n2c1COCC2)c1ccccc1 [16ik, 3,4-Dihydro-1H-pyrrolo[2,1-c][1,4]oxazine-6,8-dicarboxylic acid 6-{[(S)-cyclopropyl-(4-fluoro-phenyl)-methyl]-amide} 8-[((R)-1-phenyl-propyl)-amide]] | 710
18 | CC[C@@H](NC(=O)c1cc(C(=O)NCc2nccs2)n2c1COCC2)c1ccccc1 [16il, 3,4-Dihydro-1H-pyrrolo[2,1-c][1,4]oxazine-6,8-dicarboxylic acid 8-[((R)-1-phenyl-propyl)-amide] 6-[(thiazol-2-ylmethyl)-amide]] | 170
19 | CC[C@@H](NC(=O)c1cc(C(=O)NC2CCCc3nccnc32)n2c1COCC2)c1ccccc1 (stereo partly drawn) [16io, 3,4-Dihydro-1H-pyrrolo[2,1-c][1,4]oxazine-6,8-dicarboxylic acid 8-[((R)-1-phenyl-propyl)-amide] 6-[(5,6,7,8-tetrahydro-quinoxalin-5-yl)-amide]] | 940
20 | CC[C@@H](NC(=O)c1cc(C(=O)NC(C)c2cccc(S(N)(=O)=O)c2)n2c1COCC2)c1ccccc1 (stereo partly drawn) [16ip, 3,4-dihydro-1H-pyrrolo[2,1-c][1,4]oxazine-6,8-dicarboxylic acid 8-[((R)-1-phenyl-propyl)-amide] 6-{[1-(3-sulfamoyl-phenyl)ethyl]-amide}] | 1800
21 | CC[C@@H](NC(=O)c1cc(C(=O)NCc2cccc(C(=O)OC)c2)n2c1COCC2)c1ccccc1 [16iq, 3-({[8-((R)-1-Phenyl-propylcarbamoyl)-3,4-dihydro-1H-pyrrolo[2,1-c][1,4]oxazine-6-carbonyl]-amino}-methyl)-benzoic acid methyl ester] | 330
22 | CC[C@@H](NC(=O)c1cc(C(=O)NCc2ccc(C(=O)OC)cc2)n2c1COCC2)c1ccccc1 [16ir, 4-({[8-((R)-1-Phenyl-propylcarbamoyl)-3,4-dihydro-1H-pyrrolo[2,1-c][1,4]oxazine-6-carbonyl]-amino}-methyl)-benzoic acid methyl ester] | 350
